According to article PMC9572513, “Novel Unsymmetric 3,5-Bis(benzylidene)-4-piperidones That Display Tumor-Selective Toxicity” (Molecules, 2022):
Like-named read-outs stand apart in the source and are kept apart here.

How the values were obtained:
[1] = system: human oral squamous carcinoma; set-up: method as in PMID 32858984, PMID 31892556; conditions: cited from earlier work
[2] = system: Ca9-22, HSC-2, HSC-3, and HSC-4 squamous cell carcinoma cell lines; assay: Average over Ca9-22, HSC-2, HSC-3 and HSC-4 OSCC cell lines; assay type: cell-based, human; conditions: for Average SI: average of SI for four OSCC cell lines; for CC50: average of four OSCC cell lines, read-out: Average CC50
Protocol: (§1) The method for evaluating 2a–f and 3a–e against human oral squamous cell carcinoma (OSCC) cell lines (Ca9-22, HSC-2, HSC-3, HSC-4) and human non-malignant oral cells [human gingival fibroblast (HGF), human periodontal ligament fibroblast (HPLF), and human pulp cell (HPC)] have been reported previously, except the length of time of this bioassay was extended from 24 h to 48 h. In brief, different quantities of the compounds were incubated with the cells in Dulbecco’s modified eagle medium (DMEM), which was supplemented with 10% FBS and antibiotics. The cell viability was determined by the 3-(4,5-dimethylthiazol-2-yl)-2,5-diphenyl-2H-tetrazolium bromide (MTT) method as summarized previously (Figure 4).

HPLF non-malignant cells = assay: MTT cytotoxicity against human periodontal ligament fibroblast (HPLF); assay type: cell-based; conditions: non-malignant oral cells, 48 h
Protocol: as §1

[3] = system: HSC-4 squamous cell carcinoma cells; assay: MTT cytotoxicity against HSC-4 squamous cell carcinoma; assay type: cell-based, human; conditions: for CC50: 48 h, MTT, read-out: HSC-4 CC50; for HSC-4 SI: average CC50 HGF/HPLF/HPC divided by CC50 HSC-4
Protocol: as §1

[4] = system: HSC-3 squamous cell carcinoma cells; assay: MTT cytotoxicity against HSC-3 squamous cell carcinoma; assay type: cell-based, human; conditions: for CC50: 48 h, MTT, read-out: HSC-3 CC50; for HSC-3 SI: average CC50 HGF/HPLF/HPC divided by CC50 HSC-3
Protocol: as §1

HGF non-malignant cells = assay: MTT cytotoxicity against human gingival fibroblast (HGF); assay type: cell-based; conditions: non-malignant oral cells, 48 h
Protocol: as §1

[5] = system: HGF, HPLF, and HPC non-malignant cells; assay: Average over HGF, HPLF and HPC non-malignant oral cells; assay type: cell-based, human; conditions: average of HGF
Protocol: as §1

[6] = system: Ca9-22 squamous cell carcinoma cells; assay: MTT cytotoxicity against Ca9-22 squamous cell carcinoma; assay type: cell-based, human; conditions: for CC50: 48 h, MTT, read-out: Ca9-22 CC50; for Ca9-22 SI: average CC50 HGF/HPLF/HPC divided by CC50 Ca9-22
Protocol: as §1

HPC non-malignant cells = assay: MTT cytotoxicity against human pulp cell (HPC); assay type: cell-based; conditions: non-malignant oral cells, 48 h
Protocol: as §1

[7] = system: HSC-2 squamous cell carcinoma cells; assay: MTT cytotoxicity against HSC-2 squamous cell carcinoma; assay type: cell-based, human; conditions: for CC50: 48 h, MTT, read-out: HSC-2 CC50; for HSC-2 SI: average CC50 HGF/HPLF/HPC divided by CC50 HSC-2
Protocol: as §1

Ca9-22 cells [8] = assay: Cell cycle analysis in Ca9-22 cells (propidium iodide); assay type: cell-based, human; conditions: dose-response 0.625-10 μM, 24 h
Protocol: Apoptosis induction in Ca9-22 cells was evaluated by cell cycle analysis and Western blot analysis as described previously [25, 28] […] Briefly, for the cell cycle analysis, cells were treated for 24 h with the test samples. Cells were then fixed, digested with RNase A, stained with propidium iodide, filtered through Falcon® cell trainers (Corning Inc., Corning, NY, USA), and then subjected to cell sorting.

[9] = MTT cytotoxicity against human periodontal ligament fibroblast (HPLF); assay type: cell-based; conditions: human, human periodontal ligament fibroblasts (HPLF), non-malignant oral cells
Protocol: as §1

CEM cells [10] = assay: Annexin V-FITC apoptosis assay in CEM cells; assay type: cell-based, human; conditions: CC50 and twice the CC50 concentrations, 24 h
Protocol: In order to discover if representative compounds induce apoptosis, the annexin V-FITC assay was used. In brief, CEM cells were treated with various compounds for 24 h. The cells were collected and stained with propidium iodide and annexin V-FITC.

Ca9-22 cells [11] = assay: Western blot for caspase 3 activation in Ca9-22 cells; assay type: cell-based, human; conditions: 3 μM, 24 h
Protocol: (§2) Apoptosis induction in Ca9-22 cells was evaluated by cell cycle analysis and Western blot analysis as described previously (Figure 5). Briefly, for the cell cycle analysis, cells were treated for 24 h with the test samples. Cells were then fixed, digested with RNase A, stained with propidium iodide, filtered through Falcon® cell trainers (Corning Inc., Corning, NY, USA), and then subjected to cell sorting. For the Western blot, cell lysates (equivalent to 5 µg protein) were applied to SDS-polyacrylamide gel electrophoresis. A literature method was used to determine whether representative compounds led to increases in the production of ROS [29]. In brief, CEM cells were treated with the compounds overnight, then with 6-carboxy-2′,7′-dichlorodihydrofluorescein diacetate (carboxy-H2DCFDA) and the samples were processed using flow cytometry.

[12] = system: HCT116 and HT29 colon cancer cells; assay: Average over HCT116 and HT29 colon cancer cells; assay type: cell-based, human; conditions: for IC50: Homo sapiens, average of HCT116 and HT29, unit printed only for the single cell-line columns; for Average SI: average of SI for HCT116 and HT29; for PSE (potency-selectivity expression): reciprocal of average IC50 x average SI x 100, colon cells
Protocol: (§3) The culture medium was supplemented with 10% heat-inactivated fetal bovine serum (FBS) and 1% penicillin–streptomycin antibiotics. The time of the bioassays was 48 h. The determinations were undertaken in triplicate on three different occasions.

[13] = system: CRL1790 non-malignant colon cells; assay: Cytotoxicity against CRL1790 non-malignant colon cells; assay type: cell-based; conditions: Homo sapiens, 48 h
Protocol: as §3

CEM cells [14] = assay: ROS production in CEM cells (carboxy-H2DCFDA, flow cytometry); assay type: cell-based, human; conditions: CC50 and twice the CC50 concentrations
Protocol: as §2

CEM cells [15] = assay: Mitochondrial membrane potential in CEM cells (JC-1, flow cytometry); assay type: cell-based, human; conditions: 7 h
Protocol: The effect on the mitochondrial membrane potential in CEM cells was undertaken using a published method. In brief, the cells were incubated with different compounds for 7 h. The cells were then stained with the JC-1 dye, and the samples were examined by flow cytometry. The results are portrayed in Figure 6C.

[16] = MTT cytotoxicity against human gingival fibroblast (HGF); assay type: cell-based; conditions: human, human gingival fibroblasts (HGF), non-malignant oral cells
Protocol: as §1

CEM cells [17] = assay: Differential DNA staining (DNS) cytotoxicity assay, CEM cells; assay type: cell-based; conditions: Homo sapiens, CCRF-CEM
Protocol: (§4) The method used for generating the data of human acute lymphocytic leukemia (CEM) and human acute promyelocytic leukemia (HL-60) cells in Table 4 has been described previously. In brief, the cells were cultured in media supplemented with 10% FBS and antibiotics. […] The CC50 values of the compounds listed in Table 4 were obtained by linear interpolation equations [28, 29].

HL-60 cells = assay: Differential DNA staining (DNS) cytotoxicity assay, HL-60 cells; assay type: cell-based; conditions: Homo sapiens
Protocol: as §4

[18] = Average over HGF, HPLF and HPC non-malignant oral cells; assay type: cell-based, human; conditions: human, HPLF and HPC non-malignant oral cells (average), average of HGF
Protocol: as §1

[19] = MTT cytotoxicity against human pulp cell (HPC); assay type: cell-based; conditions: human, human pulp cells (HPC), non-malignant oral cells
Protocol: as §1

[20] = system: HCT116 colon cancer cells; assay: Cytotoxicity against HCT116 colon cancer cells; assay type: cell-based, human; conditions: IC50 CRL1790 / IC50 HCT116
Protocol: as §3

HT29 colon cancer cells = assay: Cytotoxicity against HT29 colon cancer cells; assay type: cell-based, human; conditions: IC50 CRL1790 / IC50 HT29
Protocol: as §3

[21] = 24 h, read-out: CC50 CEM Cells 24 h
[22] = 48 h, read-out: CC50 CEM Cells 48 h
[23] = HL-60, 24 h, read-out: CC50 HL-60 Cells 24 h
[24] = HL-60, 48 h, read-out: CC50 HL-60 Cells 48 h

IC50 [12] [µM] | SMILES | SI (tumor specificity) [1] | Average SI [2] | CC50 [2] [µM] | HSC-4 SI [3] | HSC-3 SI [4] | Ca9-22 SI [6] | HSC-2 SI [7] | CC50 ([2]; Homo sapiens) [µM] | CC50 at 48 h [9] [µM] | CC50 ([3]; Homo sapiens, HSC-4) [µM] | apoptotic cells (CEM cells [10]) | caspase 3 activation (cleavage of PARP and procaspase) (Ca9-22 cells [11]) | Average SI [12] | PSE (potency-selectivity expression) [12] | IC50 [13] [µM] | ROS generation (CEM cells [14]) | CC50 ([4]; Homo sapiens, HSC-3) [µM] | depolarization of the mitochondrial membrane potential (CEM cells [15]) | CC50 at 48 h [16] [µM] | other results
– | COc1ccc2c(=O)c(/C=C/c3ccc(O)cc3)coc2c1 [3-[(1E)-2-(4-hydroxyphenyl)ethenyl]-7-methoxy-4H-1-benzopyran-4-one] | 182 | – | – | – | – | – | – | – | – | – | – | – | – | – | – | – | – | – | – | –
– | COc1ccc2c(=O)c(/C=C/c3ccccc3)coc2c1 [7-methoxy-3-[(1E)-2-phenylethenyl]-4H-1-benzopyran-4-one] | 301 | – | – | – | – | – | – | – | – | – | – | – | – | – | – | – | – | – | – | –
– | [NH2][Pt]([NH2])([Cl])[Cl] [CDDP, cisplatin, reference compound] | – | >11.1 | 131 | >16.6 | >21.3 | >4.72 | >4.90 | – | – | – | – | – | – | – | – | – | – | – | – | CC50 (HPLF non-malignant cells): > 1000 µM; CC50 [3]: 60.4 µM; CC50 [4]: 46.9 µM; CC50 (HGF non-malignant cells): > 1000 µM; CC50 [5]: > 1000 µM; CC50 [6]: 212 µM; CC50 (HPC non-malignant cells): > 1000 µM; CC50 [7]: 204 µM
0.25 | CCN(CC)Cc1cc(C=C2CNCC(=Cc3ccc(OC)c(OC)c3)C2=O)ccc1O.Cl.Cl [Compound 2b, 3-(3-Diethylaminomethyl-4-hydroxybenzylidene)-5-(3,4-dimethoxybenzylidene)-4-piperidone dihydrochloride] | – | 8.27 | 0.9 | 6.06 | 9.25 | 10.8 | 6.96 | < 1 | 5.5 | 1.16 | approximately 30% | induced | 64.2 | 25,680 | 15.2 ± 0.15 | generate ROS | 0.76 | induced | 13.3 | optimal concentration for the subG1 population (Ca9-22 cells [8]): 2.5 µM; CC50 (CEM cells [17]; [21]): 0.63 ± 0.08 µM; CC50 (CEM cells [17]; [22]): 0.82 ± 0.03 µM; CC50 (HL-60 cells; [23]): 7.75 ± 0.26 µM; CC50 (HL-60 cells; [24]): 4.82 ± 0.91 µM; CC50 at 48 h [18]: 7.03 µM; CC50 ([6]; Homo sapiens, Ca9-22): 0.65 µM; CC50 at 48 h [19]: 2.3 µM; CC50 ([7]; Homo sapiens, HSC-2): 1.01 µM
0.33 | CN1CCN(Cc2cc(/C=C3\CNC/C(=C\c4ccc([N+](=O)[O-])cc4)C3=O)ccc2O)CC1 [Compound 3e] | – | – | 0.5 | 9.50 | 12.1 | 17.3 | 9.83 | < 1 | 2.7 | 0.6 | approximately 30% | induced | 48.0 | 14,546 | 15.8 ± 0.27 | generate ROS | 0.47 | induced | 12.5 | HCT116 SI (selectivity index) [20]: 46.5; CC50 (CEM cells [17]; [21]): 0.76 ± 0.15 µM; CC50 (CEM cells [17]; [22]): 0.83 ± 0.03 µM; CC50 (HL-60 cells; [23]): 4.11 µM; CC50 (HL-60 cells; [24]): 6.63 ± 0.68 µM; CC50 at 48 h [18]: 5.7 µM; HT29 SI (selectivity index) (HT29 colon cancer cells): 49.4; CC50 ([6]; Homo sapiens, Ca9-22): 0.33 µM; CC50 at 48 h [19]: 1.9 µM; CC50 ([7]; Homo sapiens, HSC-2): 0.58 µM
